Counter-ions that a name gives are not always drawn.
Key:
[1] = molecular target: T1, human Factor XIa (Homo sapiens, UniProt P03951); experiment: Factor XIa enzyme inhibition assay (IC50, purified enzyme); type: biochemical; details: purified enzyme 0.25 nM, substrate 50 μM; read-out: Potency hFXIa IC50
T1 construct: Enzyme: Factor XIa; 0.25 μM in 50% glycerol (20 μg/mL)
Procedure: • Assay buffer: 20 mM Hepes, pH 7.4; 150 mM NaCl; 0.02% Tween 20 • Compounds: 10 mM stocks in DMSO • Substrate: 20 mM Glp-Pro-Arg-AMC, 25 mg/2.3 mL H2O (store at +4° C.) [Factor XIa, thrombin, and trypsin] • 20 mM Pro-Phe-Arg-AMC (Bachem I-1295), 25 mg/2.2 mL H2O (store at +4° C.) [Factor Xa] • Enzyme: Factor XIa; 0.25 μM in 50% glycerol (20 μg/mL) • Trypsin; 0.2 μM in 50% glycerol (4.8 μg/mL) • Thrombin; 0.2 μM in 50% glycerol (7.34 μg/mL) • Factor Xa; 0.2 μM in 50% glycerol (9.2 μg/mL) • These stocks are aliquoted ([…]) and stored at −20° C. Methods: • 1. Dilute the substrate to 100 μM in assay buffer (30 μL/6 mL). The enzyme is diluted to 0.5 nM just prior to use (12 μL/6 mL for Factor XIa; 15 μL/6 mL for all of the rest.) • 2. Pipette 50 μL of substrate into each well of the 96 well (12×8) microtiter plate. (Column 1 is used as the 100% activity control and receives no compound, and Column 12 is the blank and receives no enzyme.) Add an additional 46 μL to column 2. • 3. Pipette 4 μL of each compound into the appropriate well in column 2 of the plate (unknowns assayed in triplicate, standard assayed in duplicate). The final compound concentration will be 1/50th of the stock. • 4. Serially two-fold dilute the compound by mixing the sample in column 2, removing 50 μL to the next well (column 3), mix and remove to column 4, etc. until column 11. After mixing column 11, remove 50 μL and discard. • 5. Pipette 50 μL of buffer into column 12. Initiate the reaction by adding 50 μL of enzyme solution to each well of columns 1-11 as rapidly as possible. • 6. Read the plate in a spectrophotometer (SpectraMax) at 30° C., wherein each well is measured every 60 s for 30 min. For Factor Xa assays, each well is measured every 1 min for a total of 60 min. • 7. For Factor XIa assays, the compounds are assayed, in duplicate, at 3 different starting concentrations, 20, 2, and 0.2 μM; 1:10, 1:100, and 1:1000 dil'n of 10 mM stock. All data sets are combined for graphing and data fitting. • 8. Data can be used both for estimation of IC50 and for estimation of Kon.
Potential inhibitors of Factor XIa were evaluated using the following assay.
S-2366, pyroGlu-Pro-Arg-7-methylaminocourin (AMC), available from CPC Scientific, Inc., is based on the substrate pyro-Glu-Pro-Arg-pNA, available from Diapharma Group, Inc. (Columbus, Ohio), where the p-nitroanaline group is replaced with 7-methylaminocoumarin (AMC).
The final concentration of the substrate in the assay was 50 μM, and the final concentration of the enzyme was 0.25 nM. Inhibitors were tested by serial dilution over an appropriate range to yield a dose response curve for determination of the inhibitors' IC50 value. The assay mixture was read every minute for 30 minutes in order to generate progress curves. The plates were read in a Spectramax m5 Multimode Plate Reader (Molecular Devices LLC, Sunnyvale, Calif.). Dose response curves were fit to Equation 1 below in which A is the maximum inhibition, B is the minimum inhibition, C is the IC50, and D is the Hill coefficient. [(A−B)/(1+(X/C)^D)]+B (Equation 1)

[2] = β-Lactam stability in rat plasma; type: in vitro ADME; details: normal rat plasma, room temperature; read-out: Rat Plasma Stability (T1/2; min)
Procedure: Normal rat plasma, stored at −80° C.
• 1. Place 6 μL of each compound into 0.5 mL microcentrifuge tubes or 96-well U-bottom, polypropylene microtiter plate • 2. Place 40 μL of acetonitrile (AcN) into 0.5 mL microcentrifuge tubes labeled 1-9 • 3. Add 114 μL of plasma to each compound • 4. Sample 10 μL of compound/plasma into AcN at 2, 10, 20, 30, 60, 90, 120, 240, and 480 min of incubation at room temperature • 5. Mix each time point after adding sample and place on ice. • 6. Centrifuge time points (12,000 rpm, 3 min), remove 15 μL of the supernatant and mix with 15 μL 0.1% TFA in a V-bottom microtiter plate. • 7. Place microtiter plate in autosampler of HPLC and analyze on Restek Pinnacle C18 column (2.1×100 mm). • 8. Generate extracted ion chromatogram for parent compound and parent compound+18 (H2O). Integrate extracted ion chromatograms (EIC) and plot % total peak area for parent and adduct versus time. Fit to a model of single phase exponential decay [Y=A0*exp(−k*x)+C]. T½ is equal to ln(2)/k.

T1 sequence (P03951 388-625 limits assumed): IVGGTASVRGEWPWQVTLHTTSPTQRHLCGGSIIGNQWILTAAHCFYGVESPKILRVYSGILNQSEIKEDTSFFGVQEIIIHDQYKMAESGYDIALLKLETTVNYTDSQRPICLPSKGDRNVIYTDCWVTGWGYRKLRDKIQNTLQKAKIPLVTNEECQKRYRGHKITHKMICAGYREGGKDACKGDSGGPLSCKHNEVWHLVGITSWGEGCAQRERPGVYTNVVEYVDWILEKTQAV
T1 sequence (P03951 19-387 partner limits assumed): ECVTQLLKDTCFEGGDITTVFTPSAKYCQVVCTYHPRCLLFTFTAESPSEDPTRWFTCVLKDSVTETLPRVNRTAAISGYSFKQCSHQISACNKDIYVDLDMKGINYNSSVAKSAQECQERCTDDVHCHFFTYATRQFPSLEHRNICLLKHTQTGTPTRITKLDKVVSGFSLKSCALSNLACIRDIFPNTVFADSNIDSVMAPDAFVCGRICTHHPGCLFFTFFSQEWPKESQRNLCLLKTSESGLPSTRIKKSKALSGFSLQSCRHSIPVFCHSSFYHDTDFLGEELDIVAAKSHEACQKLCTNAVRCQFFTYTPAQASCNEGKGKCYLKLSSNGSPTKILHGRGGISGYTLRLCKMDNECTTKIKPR

SMILES	IC50 [1] [nM]	half-life [2] [h]
C[C@@H](NC(=O)N1C(=O)[C@H](Cc2ccnc(N)c2)[C@H]1C(N)=O)c1ccccc1 [Example 13, (2S,3R)-3-[(2-aminopyridin-4-yl)methyl]-4-oxo-N-1-[(1R)-1-phenylethyl]azetidine-1,2-dicarboxamide trifluoroacetate]	> 1000	–
O=C(O)[C@@H]1[C@@H](Cc2ccnc(Cl)c2)C(=O)N1C(=O)NC(c1ccccc1)c1ccccc1 [Example 51]	> 1000	–
CCCCCCOC(=O)Nc1cc(C[C@H]2C(=O)N(C(=O)NC(c3ccccc3)c3ccccc3)[C@@H]2C(=O)O)ccn1 [Example 56]	> 1000	> 1.67
CCCCCCOC(=O)Nc1cc(C[C@H]2C(=O)N(C(=O)NC(c3ccccc3)c3ccccc3)[C@@H]2C(=O)OCC)ccn1 [Example 57]	> 1000	< 1.67
CCOC(=O)[C@@H]1[C@@H](Cc2cccnc2)C(=O)N1C(=O)N[C@H](C)c1ccc2c(c1)OC(F)(F)O2 [Example 95]	> 1000	–
C[C@@H](NC(=O)N1C(=O)[C@H](Cc2ccc(Cl)nc2)[C@H]1C(=O)O)c1ccc2c(c1)OC(F)(F)O2 [Example 96]	> 1000	–
CCOC(=O)[C@@H]1[C@@H](Cc2ccc(Cl)nc2)C(=O)N1C(=O)N[C@H](C)c1ccc2c(c1)OC(F)(F)O2 [Example 97]	> 1000	< 1.67
C[C@@H](NC(=O)N1C(=O)[C@H](Cc2cncs2)[C@H]1C(=O)O)c1ccc2c(c1)OC(F)(F)O2 [Example 102]	> 1000	> 1.67
C[C@@H](NC(=O)N1C(=O)[C@H](Cc2cc(Cl)ccn2)[C@H]1C(=O)O)c1ccc2c(c1)OC(F)(F)O2 [Example 107]	> 1000	–
C[C@@H](NC(=O)N1C(=O)[C@H](Cc2cncc(Cl)c2)[C@H]1C(=O)O)c1ccc2c(c1)OC(F)(F)O2 [Example 108]	> 1000	–
C[C@@H](NC(=O)N1C(=O)[C@H](Cc2ccccn2)[C@H]1C(=O)O)c1ccc2c(c1)OC(F)(F)O2 [Example 114]	> 1000	–
O=C(O)[C@@H]1[C@@H](Cc2cccc(Br)c2)C(=O)N1C(=O)N[C@@H](C1CCCCC1)C(F)(F)F [Example 131]	> 1000	–
O=C(O)[C@@H]1[C@@H](Cc2cncc(Cl)c2)C(=O)N1C(=O)N[C@@H](C1CCCCC1)C(F)(F)F [Example 133]	> 1000	–
O=C(O)[C@@H]1[C@@H](Cc2cccc3c2OCO3)C(=O)N1C(=O)N[C@@H](C1CCCCC1)C(F)(F)F [Example 136]	100 to 1000	–
O=C(O)[C@@H]1[C@@H](Cc2cccc3[nH]ncc23)C(=O)N1C(=O)N[C@@H](C1CCCCC1)C(F)(F)F [Example 138]	> 1000	–
O=C(O)[C@@H]1[C@@H](Cc2ccccc2)C(=O)N1C(=O)N[C@@H](C1CCCCC1)C(F)(F)F [Example 139]	> 1000	–
C[C@H](c1ccccc1)N(C)C(=O)N1C(=O)[C@H](CCc2cccc(Cl)c2)[C@H]1C(=O)O [Example 144]	> 1000	–

The next lines start with the values.

IC50 [1] [nM]	half-life [2] [h]	SMILES
> 1000	–	O=C(O)[C@@H]1[C@@H](CCc2ccccc2)C(=O)N1C(=O)N[C@@H](C1CCCCC1)C(F)(F)F [Example 145]
> 1000	–	O=C(O)[C@@H]1[C@@H](Cc2ccnc(O)c2)C(=O)N1C(=O)N[C@@H](C1CCCCC1)C(F)(F)F [Example 147]
10 to 100	–	C[C@H](C1CCCCC1)N(C)C(=O)N1C(=O)[C@H](Cc2ccnc(N)c2)[C@H]1C(=O)O [Example 149]
10 to 100	< 1.67	CCOC(=O)[C@@H]1[C@@H](Cc2ccnc(NC(=O)OC(C)OC(=O)C(C)C)c2)C(=O)N1C(=O)N[C@H](C)C1CCCCC1 (stereo partly drawn) [Example 150]
10 to 100	< 1.67	CCOC(=O)[C@@H]1[C@@H](Cc2ccnc(N)c2)C(=O)N1C(=O)N(C)[C@H](C)C1CCCCC1 [Example 151]
> 1000	–	O=C(O)[C@@H]1[C@@H](CCCc2ccccc2)C(=O)N1C(=O)N[C@@H](C1CCCCC1)C(F)(F)F [Example 152]
> 1000	–	O=C(O)[C@@H]1[C@@H](CCc2ccc(Cl)cc2)C(=O)N1C(=O)N[C@@H](C1CCCCC1)C(F)(F)F [Example 153]
> 1000	–	COc1cccc(CC[C@H]2C(=O)N(C(=O)N[C@@H](C3CCCCC3)C(F)(F)F)[C@@H]2C(=O)O)c1 [Example 154]
100 to 1000	–	Cc1cccc(CC[C@H]2C(=O)N(C(=O)N[C@@H](C3CCCCC3)C(F)(F)F)[C@@H]2C(=O)O)c1 [Example 155]
> 1000	–	O=C(O)[C@@H]1[C@@H](CCc2cccc(Cl)c2)C(=O)N1C(=O)NC(c1ccccc1)c1ccccc1 [Example 157]
100 to 1000	–	C[C@@H](NC(=O)N1C(=O)[C@H](CCc2cccc(Cl)c2)[C@H]1C(=O)O)c1ccc2c(c1)OC(F)(F)O2 [Example 159]
100 to 1000	< 1.67	CCCCCCOC(=O)Nc1cc(C[C@H]2C(=O)N(C(=O)NC(C)c3ccccc3)[C@@H]2C(=O)OCC)ccn1 (stereo partly drawn) [Example 160]
> 1000	< 1.67	CC(C)OC(=O)[C@@H]1[C@@H](Cc2ccc(Cl)nc2)C(=O)N1C(=O)N[C@H](C)c1ccc2c(c1)OC(F)(F)O2 [Example 171]
> 1000	> 1.67	CCCCCCOC(=O)Nc1cc(C[C@H]2C(=O)N(C(=O)N[C@H](C)c3ccccc3)[C@@H]2C(=O)O)ccn1 [Example 175]
> 1000	–	C[C@@H](NC(=O)N1C(=O)[C@H](Cc2ccnc(Cl)c2)[C@H]1C(=O)O)c1ccccc1 [Example 190]
> 1000	–	C[C@@H](NC(=O)N1C(=O)[C@H](Cc2cccnc2)[C@H]1C(=O)O)c1ccc2c(c1)OC(F)(F)O2 [Example 191]
> 1000	–	CCCC(CCC)NC(=O)N1C(=O)[C@H](CCc2cccc(Cl)c2)[C@H]1C(=O)O [Example 192]
> 1000	–	O=C(O)[C@@H]1[C@@H](Cc2cccc(Cl)c2)C(=O)N1C(=O)N[C@@H](C1CCCCC1)C(F)(F)F [Example 193]
> 1000	–	O=C(O)[C@@H]1[C@@H](CCc2ccccc2Cl)C(=O)N1C(=O)N[C@@H](C1CCCCC1)C(F)(F)F [Example 194]
> 1000	–	O=C(O)[C@@H]1[C@@H](Cc2ccc(Cl)cc2)C(=O)N1C(=O)N[C@@H](C1CCCCC1)C(F)(F)F [Example 195]
> 1000	–	O=C(O)[C@@H]1[C@@H](Cc2ccccc2Cl)C(=O)N1C(=O)N[C@@H](C1CCCCC1)C(F)(F)F [Example 196]
100 to 1000	–	O=C(O)[C@@H]1[C@@H](CCc2cc(Cl)ccc2F)C(=O)N1C(=O)N[C@@H](C1CCCCC1)C(F)(F)F [Example 197]
100 to 1000	–	O=C(O)[C@@H]1[C@@H](CCc2cc(Cl)ccc2Cl)C(=O)N1C(=O)N[C@@H](C1CCCCC1)C(F)(F)F [Example 198]
100 to 1000	–	O=C(O)[C@@H]1[C@@H](CCc2cccc(Cl)c2)C(=O)N1C(=O)N[C@@H](C1CCCCCCC1)C(F)(F)F [Example 199]
> 1000	–	O=C(O)[C@@H]1[C@@H](CCc2ccc(Br)s2)C(=O)N1C(=O)N[C@@H](C1CCCCC1)C(F)(F)F [Example 200]

Reference: patent publication US11198673B2, “Therapeutic compounds and compositions” (eXIthera Pharmaceuticals, Inc., priority 2014, dated 2021)
